Laboratory results taken from ChEMBL document CHEMBL1128946, “Novel inhibitors of influenza sialidases related to GG167 structure-activity, crystallographic and Molecular dynamics studies with 4H-pyran-2-carboxylic acid 6-carboxamides” (Bioorg Med Chem Lett, 1996).

molecular target: Neuraminidase (Influenza A virus (A/Puerto Rico/8/1934(H1N1)), UniProt P03468); test: Inhibition of influenza A sialidase (neuraminidase); parameters: species or system Influenza A virus (strain: A/PR/8/34)

In order of falling IC50:
1. CNC(=O)[C@@H]1OC(C(=O)O)=C[C@H](N)[C@H]1NC(C)=O  190000 nM
2. CCNC(=O)[C@@H]1OC(C(=O)O)=C[C@H](N)[C@H]1NC(C)=O  13000 nM
3. CC(=O)N[C@@H]1[C@@H](N)C=C(C(=O)O)O[C@H]1C(=O)NCCc1ccccc1  12000 nM
4. CNC(=O)[C@@H]1OC(C(=O)O)=C[C@H](N=C(N)N)[C@H]1NC(C)=O  7000 nM
5. CC(=O)N[C@@H]1[C@@H](N)C=C(C(=O)O)O[C@H]1C(=O)N(C)CCc1ccccc1  320 nM
6. CC(=O)N[C@H]1[C@H]([C@H](O)[C@H](O)CO)OC(C(=O)O)=C[C@@H]1N  300 nM
7. CC(=O)N[C@@H]1[C@@H](N=C(N)N)C=C(C(=O)O)O[C@H]1C(=O)N(C)C  25 nM
8. CCCCN(CCCC)C(=O)[C@@H]1OC(C(=O)O)=C[C@H](N=C(N)N)[C@H]1NC(C)=O  16 nM
9. CCN(CCc1ccccc1)C(=O)[C@@H]1OC(C(=O)O)=C[C@H](N)[C@H]1NC(C)=O  5 nM
10. CCCN(CCc1ccccc1)C(=O)[C@@H]1OC(C(=O)O)=C[C@H](N=C(N)N)[C@H]1NC(C)=O  5 nM
11. CCN(CC)C(=O)[C@@H]1OC(C(=O)O)=C[C@H](N)[C@H]1NC(C)=O  3 nM
12. CCCN(CCc1ccc(-c2ccccc2)cc1)C(=O)[C@@H]1OC(C(=O)O)=C[C@H](N)[C@H]1NC(C)=O  3 nM
13. CCCN(CCC)C(=O)[C@@H]1OC(C(=O)O)=C[C@H](N)[C@H]1NC(C)=O  3 nM
14. CCN(CC)C(=O)[C@@H]1OC(C(=O)O)=C[C@H](NC(=N)N)[C@H]1NC(C)=O  1 nM
